Earlier results, collected in PubChem BioAssay AID1259409 (Chemical Carcinogenesis Research Information System (CCRIS), 2018).

Test system: rodent chemically induced tumor inhibition, incidence and multiplicity
Assay: CCRIS tumor inhibitor studies

Oc1cccc(O)c1
tumour outcome (control, treated, inhibition, significance) (Carcinogen: 3,2'-DIMETHYL-4-AMINOBIPHENYL, 13394-86-0, Dose [Inhibitor]: 0, 0.8% IN BASAL DIET BEGINNING POST CARCINOGEN TREATMENT AND CONTINUING FOR 40 WK (STUDY DURATION: 60 WK), Route [Inhibitor]: ORAL, Species: RAT, Strain/Sex: F344/MALE, Target Tissue: Type of Lesion: LARGE INTESTINE: ADENOMA AND ADENOCARCINOMA, Dose [Carcinogen]: 50 MG/KG 1/2 WK FOR 20 WK TO RATS MAINTAINED ON ETHINYL ESTRADIOL CONTAINING DIET (0.75 PPM) FOR 1 WK CYCLED WITH ETHINY, Promoter: ETHINYL ESTRADIOL, 57-63-6): 3/10 (30%), 6/10 (60%), -100%, not significant
tumour outcome (control, treated, inhibition, significance) (Carcinogen: 3,2'-DIMETHYL-4-AMINOBIPHENYL, 13394-86-0, Dose [Inhibitor]: 0, 0.8% IN BASAL DIET BEGINNING POST CARCINOGEN TREATMENT AND CONTINUING FOR 40 WK (STUDY DURATION: 60 WK), Route [Inhibitor]: ORAL, Species: RAT, Strain/Sex: F344/MALE, Target Tissue: Type of Lesion: PANCREAS: ACINAR CELL NODULE, Dose [Carcinogen]: 50 MG/KG 1/2 WK FOR 20 WK TO RATS MAINTAINED ON ETHINYL ESTRADIOL CONTAINING DIET (0.75 PPM) FOR 1 WK CYCLED WITH ETHINY, Promoter: ETHINYL ESTRADIOL, 57-63-6): 4/10 (40%), 3/10 (30%), 25%, not significant
tumour outcome (control, treated, inhibition, significance) (Carcinogen: 3,2'-DIMETHYL-4-AMINOBIPHENYL, 13394-86-0, Dose [Inhibitor]: 0, 0.8% IN BASAL DIET BEGINNING POST CARCINOGEN TREATMENT AND CONTINUING FOR 40 WK (STUDY DURATION: 60 WK), Route [Inhibitor]: ORAL, Species: RAT, Strain/Sex: F344/MALE, Target Tissue: Type of Lesion: PREPUTIAL GLAND: ADENOMA AND CARCINOMA, Dose [Carcinogen]: 50 MG/KG 1/2 WK FOR 20 WK TO RATS MAINTAINED ON ETHINYL ESTRADIOL CONTAINING DIET (0.75 PPM) FOR 1 WK CYCLED WITH ETHINY, Promoter: ETHINYL ESTRADIOL, 57-63-6): 5/10 (50%), 3/10 (30%), 40%, not significant
tumour outcome (control, treated, inhibition, significance) (Carcinogen: 3,2'-DIMETHYL-4-AMINOBIPHENYL, 13394-86-0, Dose [Inhibitor]: 0, 0.8% IN BASAL DIET BEGINNING POST CARCINOGEN TREATMENT AND CONTINUING FOR 40 WK (STUDY DURATION: 60 WK), Route [Inhibitor]: ORAL, Species: RAT, Strain/Sex: F344/MALE, Target Tissue: Type of Lesion: PROSTATE: CARCINOMA, Dose [Carcinogen]: 50 MG/KG 1/2 WK FOR 20 WK TO RATS MAINTAINED ON ETHINYL ESTRADIOL CONTAINING DIET (0.75 PPM) FOR 1 WK CYCLED WITH ETHINY, Promoter: ETHINYL ESTRADIOL, 57-63-6): 5/10 (50%), 3/10 (30%), 40%, not significant
tumour outcome (control, treated, inhibition, significance) (Carcinogen: 3,2'-DIMETHYL-4-AMINOBIPHENYL, 13394-86-0, Dose [Inhibitor]: 0, 0.8% IN BASAL DIET BEGINNING POST CARCINOGEN TREATMENT AND CONTINUING FOR 40 WK (STUDY DURATION: 60 WK), Route [Inhibitor]: ORAL, Species: RAT, Strain/Sex: F344/MALE, Target Tissue: Type of Lesion: SMALL INTESTINE: ADENOMA AND ADENOCARCINOMA, Dose [Carcinogen]: 50 MG/KG 1/2 WK FOR 20 WK TO RATS MAINTAINED ON ETHINYL ESTRADIOL CONTAINING DIET (0.75 PPM) FOR 1 WK CYCLED WITH ETHINY, Promoter: ETHINYL ESTRADIOL, 57-63-6): 2/10 (20%), 2/10 (20%), 0%, not significant
tumour outcome (control, treated, inhibition, significance) (Carcinogen: 3,2'-DIMETHYL-4-AMINOBIPHENYL, 13394-86-0, Dose [Inhibitor]: 0, 0.8% IN BASAL DIET BEGINNING POST CARCINOGEN TREATMENT AND CONTINUING FOR 40 WK (STUDY DURATION: 60 WK), Route [Inhibitor]: ORAL, Species: RAT, Strain/Sex: F344/MALE, Target Tissue: Type of Lesion: SUBCUTIS: TUMOR, Dose [Carcinogen]: 50 MG/KG 1/2 WK FOR 20 WK TO RATS MAINTAINED ON ETHINYL ESTRADIOL CONTAINING DIET (0.75 PPM) FOR 1 WK CYCLED WITH ETHINY, Promoter: ETHINYL ESTRADIOL, 57-63-6): 1/10 (10%), 1/10 (10%), 0%, not significant
tumour outcome (control, treated, inhibition, significance) (Carcinogen: 3,2'-DIMETHYL-4-AMINOBIPHENYL, 13394-86-0, Dose [Inhibitor]: 0, 0.8% IN BASAL DIET BEGINNING POST CARCINOGEN TREATMENT AND CONTINUING FOR 40 WK (STUDY DURATION: 60 WK), Route [Inhibitor]: ORAL, Species: RAT, Strain/Sex: F344/MALE, Target Tissue: Type of Lesion: ZYMBAL GLAND: ADENOMA OR CARCINOMA, Dose [Carcinogen]: 50 MG/KG 1/2 WK FOR 20 WK TO RATS MAINTAINED ON ETHINYL ESTRADIOL CONTAINING DIET (0.75 PPM) FOR 1 WK CYCLED WITH ETHINY, Promoter: ETHINYL ESTRADIOL, 57-63-6): 2/10 (20%), 2/10 (20%), 0%, not significant
tumour outcome (control, treated, inhibition, significance) (Carcinogen: BENZO[A]PYRENE, 50-32-8, Dose [Inhibitor]: 10 MG IN 0.1 ML ACETONE 3/WK ADMINISTERED SIMULTANEOUSLY WITH CARCINOGEN FOR DU RATION OF STUDY (STUDY DURATION: 368 D), Route [Inhibitor]: DERMAL, Species: MOUSE, Strain/Sex: ICR/FEMALE, Target Tissue: Type of Lesion: SKIN: PAPILLOMA, Dose [Carcinogen]: 5 UG IN 0.1 ML ACETONE THAT ALSO CONTAINED AGENT 3/WK FOR DURATION OF STUDY, Promoter: NONE USED): 14/50 (28%), 5/50 (10%), 64%, not calculated
tumour outcome (control, treated, inhibition, significance) (Carcinogen: BENZO[A]PYRENE, 50-32-8, Dose [Inhibitor]: 10 MG IN 0.1 ML ACETONE 3/WK ADMINISTERED SIMULTANEOUSLY WITH CARCINOGEN FOR DU RATION OF STUDY (STUDY DURATION: 368 D), Route [Inhibitor]: DERMAL, Species: MOUSE, Strain/Sex: ICR/FEMALE, Target Tissue: Type of Lesion: SKIN: SQUAMOUS CARCINOMA, Dose [Carcinogen]: 5 UG IN 0.1 ML ACETONE THAT ALSO CONTAINED AGENT 3/WK FOR DURATION OF STUDY, Promoter: NONE USED): 10/50 (20%), 2/50 (4%), 80%, not calculated
tumour outcome (control, treated, inhibition, significance) (Carcinogen: N-BIS(2-HYDROXYPROPYL)NITROSAMINE, 53609-64-6, Dose [Inhibitor]: 0, 0.8% IN DIET FOR 30 WK BEGINNING POST CARCINOGEN (STUDY DURATION: 32 WK), Route [Inhibitor]: ORAL, Species: RAT, Strain/Sex: F344/MALE, Target Tissue: Type of Lesion: LUNG: CARCINOMA, Dose [Carcinogen]: 0.1% IN DRINKING WATER FOR 2 WK, Promoter: NONE USED): 45%, 40%, 11%, not calculated
tumour outcome (control, treated, inhibition, significance) (Carcinogen: N-BIS(2-HYDROXYPROPYL)NITROSAMINE, 53609-64-6, Dose [Inhibitor]: 0, 0.8% IN DIET FOR 30 WK BEGINNING POST CARCINOGEN TREATMENT (STUDY DURATION: 32 WK), Route [Inhibitor]: ORAL, Species: RAT, Strain/Sex: F344/MALE, Target Tissue: Type of Lesion: BLADDER: ADENOMA, Dose [Carcinogen]: 0.1% IN DRINKING WATER FOR 2 WK, Promoter: NONE USED): 5%, 10%, -100%, not calculated
tumour outcome (control, treated, inhibition, significance) (Carcinogen: N-BIS(2-HYDROXYPROPYL)NITROSAMINE, 53609-64-6, Dose [Inhibitor]: 0, 0.8% IN DIET FOR 30 WK BEGINNING POST CARCINOGEN TREATMENT (STUDY DURATION: 32 WK), Route [Inhibitor]: ORAL, Species: RAT, Strain/Sex: F344/MALE, Target Tissue: Type of Lesion: KIDNEY: TUMOR, Dose [Carcinogen]: 0.1% IN DRINKING WATER FOR 2 WK, Promoter: NONE USED): 10%, 35%, -250%, not calculated
